In US9113629B2, “4-amino-6-(4-substituted-phenyl)-picolinates and 6-amino-2-(4-substituted-phenyl)-pyrimidine-4-carboxylates and their use as herbicides” (DOW AGROSCIENCES LLC, priority 2013, dated 2015):

What was measured:
Assay in all cases: Post-emergent Test III, herbicidal activity in wheat and barley
Type in all cases: in vivo
[1] = system: CIRAR: Canada thistle (Cirsium arvense); conditions: Table 8, 21 d; for pest or weed control at 35 g/ha: 35 g ai/ha; for pest or weed control at 70 g/ha: 70 g ai/ha; for GR50 CIRAR: dose for 50 percent growth reduction; for GR50 CIRAR / GR80 CIRAR: probit analysis; for GR80 CIRAR: dose for 80 percent growth reduction
Summary of the method: (§1)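 Plants at the second to third true-leaf stage, grown in a greenhouse at about 18/17 °C with a 14 h photoperiod, were sprayed post-emergence at 187 L/ha with the high rate and ½× to 1/16× serial dilutions in an acetone/DMSO/crop-oil/surfactant carrier. Injury was rated visually at 21 d on a 0–100% scale, and GR20–GR90 were derived by probit analysis.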

[2] = system: GALAP: cleavers (Galium aparine); conditions: Table 8, 21 d; for pest or weed control at 35 g/ha: 35 g ai/ha; for pest or weed control at 70 g/ha: 70 g ai/ha; for GR50 GALAP: dose for 50 percent growth reduction; for GR50 GALAP / GR80 GALAP: probit analysis; for GR80 GALAP: dose for 80 percent growth reduction
Summary of the method: as §1

[3] = system: SASKR: Russian thistle (Salsola iberica); conditions: Table 8, 21 d; for pest or weed control at 35 g/ha: 35 g ai/ha; for pest or weed control at 70 g/ha: 70 g ai/ha; for GR50 SASKR: dose for 50 percent growth reduction; for GR50 SASKR / GR80 SASKR: probit analysis; for GR80 SASKR: dose for 80 percent growth reduction
Summary of the method: as §1

[4] = Cirsium arvense, post-emergence, 504 h, post-emergent, read-out: Visual Growth Reduction (%) 21 Days After Application CIRAR
[5] = Galium aparine, post-emergence, 504 h, post-emergent, read-out: Visual Growth Reduction (%) 21 Days After Application GALAP
[6] = Salsola tragus, post-emergence, 504 h, post-emergent, read-out: Visual Growth Reduction (%) 21 Days After Application SASKR

SMILES	pest or weed control at 35 g/ha [1, 4] [%]	pest or weed control at 70 g/ha [1, 4] [%]	GR50 CIRAR [1] [g ai/ha]	GR80 CIRAR [1] [g ai/ha]	pest or weed control at 35 g/ha [2, 5] [%]	pest or weed control at 70 g/ha [2, 5] [%]	GR50 GALAP [2] [g ai/ha]	GR80 GALAP [2] [g ai/ha]	pest or weed control at 35 g/ha [3, 6] [%]	pest or weed control at 70 g/ha [3, 6] [%]	GR50 SASKR [3] [g ai/ha]	GR80 SASKR [3] [g ai/ha]	pest or weed control at 140 g/ha ([1]; Cirsium arvense, post-emergence, 504 h, 140 g ai/ha, post-emergent, read-out: Visual Growth Reduction (%) 21 Days After Application CIRAR) [%]	pest or weed control at 140 g/ha ([2]; Galium aparine, post-emergence, 504 h, 140 g ai/ha, post-emergent, read-out: Visual Growth Reduction (%) 21 Days After Application GALAP) [%]	pest or weed control at 140 g/ha ([3]; Salsola tragus, post-emergence, 504 h, 140 g ai/ha, post-emergent, read-out: Visual Growth Reduction (%) 21 Days After Application SASKR) [%]
Nc1cc(-c2ccc(I)cc2F)nc(C(=O)O)c1Cl [Compound 124]	60 to 74	75 to 84	24	91	85 to 94	95 to 100	6	21	60 to 74	85 to 94	12	53			
Nc1c(Cl)c(C(=O)O)nc(-c2ccc(Br)c(F)c2)c1Cl [Compound 43, 4-Amino-6-(4-bromo-3-fluorophenyl)-3,5-dichloropicolinic acid]	85 to 94	85 to 94	0	13	95 to 100	95 to 100	2	6	75 to 84	75 to 84	3	61			
COC(=O)c1nc(-c2ccc(Br)c(F)c2)nc(N)c1OC [Compound 171, Methyl 6-amino-2-(4-bromo-3-fluorophenyl)-5-methoxypyrimidine-4-carboxylate]	60 to 74	60 to 74	17	80	85 to 94	95 to 100		23	60 to 74	75 to 84	21	67			
COC(=O)c1nc(-c2ccc(I)c(F)c2)nc(N)c1OC [Compound 27, Methyl 6-amino-2-(3-fluoro-4-iodophenyl)-5-methoxypyrimidine-4-carboxylate]	75 to 84	75 to 84	18	70	85 to 94	85 to 94	5	25	60 to 74	60 to 74	22	116			
Nc1c(Cl)c(C(=O)O)nc(-c2ccc(I)c(F)c2)c1Cl [Compound 145, 4-Amino-3,5-dichloro-6-(3-fluoro-4-iodophenyl)picolinic acid]	95 to 100	85 to 94	2	7	45 to 59	75 to 84	18	54	60 to 74	75 to 84		79	95 to 100	95 to 100	85 to 94
